pEC50: −log10 of the molar value.
Assay: Antiviral activity against HIV protease in absence of human serum

CCCCN1C(=O)N(Cc2cccc(C(=N)NO)c2)[C@H](Cc2ccccc2)[C@H](O)CN1S(=O)(=O)c1cccc(OC)c1
pEC50: 7.52

From BindingDB's records for doi:10.1016/j.bmcl.2004.05.036 (Abbott Laboratories, 2004)
